Patent US7759331B2, “Pyridine-containing macroheterococylic compounds as kinase inhibitors” (Janssen Pharmaceutica NV, priority 2006, dated 2010)

Legend:
Assay in all cases: Protein kinase selectivity panel
Type in all cases: biochemical
Settings in all cases: 1.0 μM compound, 10 μM ATP
Bmx(h) = biological target: T1, Bmx(h) (Homo sapiens, UniProt P51813)
T1 sequence (P51813 1-675): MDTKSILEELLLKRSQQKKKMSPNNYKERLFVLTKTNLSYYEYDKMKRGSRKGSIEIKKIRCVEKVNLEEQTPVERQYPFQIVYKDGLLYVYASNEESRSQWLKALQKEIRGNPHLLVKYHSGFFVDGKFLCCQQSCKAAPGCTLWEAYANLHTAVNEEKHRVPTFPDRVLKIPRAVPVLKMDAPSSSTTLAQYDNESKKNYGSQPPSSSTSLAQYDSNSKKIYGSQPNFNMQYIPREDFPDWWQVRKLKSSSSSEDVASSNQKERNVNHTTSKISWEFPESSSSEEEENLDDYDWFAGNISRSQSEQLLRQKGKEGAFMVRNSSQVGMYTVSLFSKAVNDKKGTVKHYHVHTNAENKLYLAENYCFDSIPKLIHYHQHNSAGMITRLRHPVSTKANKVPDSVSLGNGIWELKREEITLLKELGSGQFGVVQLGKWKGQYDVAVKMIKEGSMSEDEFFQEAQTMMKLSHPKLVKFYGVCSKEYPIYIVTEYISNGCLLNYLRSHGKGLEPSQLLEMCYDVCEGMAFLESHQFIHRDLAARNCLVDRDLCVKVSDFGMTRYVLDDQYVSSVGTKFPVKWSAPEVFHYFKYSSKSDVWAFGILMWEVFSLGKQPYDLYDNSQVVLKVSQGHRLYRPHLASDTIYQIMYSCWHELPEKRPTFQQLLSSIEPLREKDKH
How it was run: (§1)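 Kinase, its appropriate substrate, and 10 μM ATP were combined with 1.0 μM compound. Phosphorylation was then allowed to proceed within the time-linear range and measured.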

Flt3(h) = biological target: T2, Flt3(h) (Homo sapiens, UniProt P36888)
T2 sequence (P36888 27-993): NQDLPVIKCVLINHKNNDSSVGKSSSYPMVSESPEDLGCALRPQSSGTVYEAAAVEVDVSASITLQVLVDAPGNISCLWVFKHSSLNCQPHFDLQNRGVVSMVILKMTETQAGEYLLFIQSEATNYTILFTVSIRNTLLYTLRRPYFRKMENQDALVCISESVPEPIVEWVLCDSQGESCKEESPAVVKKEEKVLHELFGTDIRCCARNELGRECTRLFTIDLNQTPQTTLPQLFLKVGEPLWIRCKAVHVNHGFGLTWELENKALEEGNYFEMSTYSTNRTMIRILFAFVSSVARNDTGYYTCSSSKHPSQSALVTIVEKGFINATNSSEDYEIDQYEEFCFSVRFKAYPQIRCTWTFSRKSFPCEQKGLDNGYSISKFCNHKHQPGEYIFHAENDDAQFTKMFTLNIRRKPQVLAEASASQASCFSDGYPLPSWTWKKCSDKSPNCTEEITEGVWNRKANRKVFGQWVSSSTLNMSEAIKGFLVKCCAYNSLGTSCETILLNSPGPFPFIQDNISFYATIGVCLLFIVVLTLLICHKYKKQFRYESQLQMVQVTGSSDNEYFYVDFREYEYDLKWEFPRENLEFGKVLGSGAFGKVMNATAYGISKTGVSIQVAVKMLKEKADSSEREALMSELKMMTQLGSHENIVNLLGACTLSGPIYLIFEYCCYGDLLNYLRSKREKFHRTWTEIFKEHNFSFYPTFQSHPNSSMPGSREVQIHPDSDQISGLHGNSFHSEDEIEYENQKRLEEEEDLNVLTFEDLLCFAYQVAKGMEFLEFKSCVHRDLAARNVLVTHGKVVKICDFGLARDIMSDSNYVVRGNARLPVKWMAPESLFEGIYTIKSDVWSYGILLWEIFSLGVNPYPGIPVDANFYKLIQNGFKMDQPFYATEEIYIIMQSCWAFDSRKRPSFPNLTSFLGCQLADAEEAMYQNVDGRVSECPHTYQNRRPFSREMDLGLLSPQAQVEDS
How it was run: as §1

NEK2(h) = biological target: T3, NEK2(h) (Homo sapiens, UniProt P51955)
T3 sequence (P51955 1-445): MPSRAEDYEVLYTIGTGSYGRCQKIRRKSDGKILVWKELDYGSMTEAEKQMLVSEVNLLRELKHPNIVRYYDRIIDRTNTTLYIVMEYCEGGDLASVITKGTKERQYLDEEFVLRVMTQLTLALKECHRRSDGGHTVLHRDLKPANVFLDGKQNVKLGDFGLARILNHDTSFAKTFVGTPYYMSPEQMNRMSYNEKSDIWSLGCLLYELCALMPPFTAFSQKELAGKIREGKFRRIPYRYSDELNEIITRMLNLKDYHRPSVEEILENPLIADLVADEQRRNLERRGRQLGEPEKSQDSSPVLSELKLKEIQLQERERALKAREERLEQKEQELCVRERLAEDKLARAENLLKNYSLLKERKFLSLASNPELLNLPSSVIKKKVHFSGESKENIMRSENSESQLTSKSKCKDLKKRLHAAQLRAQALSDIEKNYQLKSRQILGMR
How it was run: as §1

PKA(h) = PKA(h) (Homo sapiens, UniProt P17612)
How it was run: as §1

PKCβII(h) = PKCβII(h) (Homo sapiens, UniProt P05771)
PKCβII(h), sequence (P05771 1-673 isoform P05771-2): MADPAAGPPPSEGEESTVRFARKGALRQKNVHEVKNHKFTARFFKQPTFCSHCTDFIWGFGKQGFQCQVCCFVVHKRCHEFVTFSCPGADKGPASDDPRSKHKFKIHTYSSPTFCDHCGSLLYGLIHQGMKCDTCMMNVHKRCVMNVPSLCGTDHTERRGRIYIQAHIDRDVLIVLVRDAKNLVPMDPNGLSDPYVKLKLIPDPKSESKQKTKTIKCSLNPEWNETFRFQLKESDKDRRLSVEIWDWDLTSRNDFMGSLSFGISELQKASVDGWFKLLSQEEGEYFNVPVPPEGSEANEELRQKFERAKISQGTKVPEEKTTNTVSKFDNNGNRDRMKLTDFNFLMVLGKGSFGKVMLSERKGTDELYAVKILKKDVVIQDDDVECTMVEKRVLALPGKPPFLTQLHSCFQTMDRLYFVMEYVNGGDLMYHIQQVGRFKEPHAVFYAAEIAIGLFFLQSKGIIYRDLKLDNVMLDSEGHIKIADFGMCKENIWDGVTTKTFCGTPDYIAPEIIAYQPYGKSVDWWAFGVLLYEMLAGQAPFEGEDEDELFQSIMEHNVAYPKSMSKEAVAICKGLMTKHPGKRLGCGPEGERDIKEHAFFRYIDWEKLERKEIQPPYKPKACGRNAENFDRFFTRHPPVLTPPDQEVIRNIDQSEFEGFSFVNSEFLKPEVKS
How it was run: as §1

PKCη(h) = PKCη(h) (Homo sapiens, UniProt P24723)
PKCη(h), sequence (P24723 whole entry): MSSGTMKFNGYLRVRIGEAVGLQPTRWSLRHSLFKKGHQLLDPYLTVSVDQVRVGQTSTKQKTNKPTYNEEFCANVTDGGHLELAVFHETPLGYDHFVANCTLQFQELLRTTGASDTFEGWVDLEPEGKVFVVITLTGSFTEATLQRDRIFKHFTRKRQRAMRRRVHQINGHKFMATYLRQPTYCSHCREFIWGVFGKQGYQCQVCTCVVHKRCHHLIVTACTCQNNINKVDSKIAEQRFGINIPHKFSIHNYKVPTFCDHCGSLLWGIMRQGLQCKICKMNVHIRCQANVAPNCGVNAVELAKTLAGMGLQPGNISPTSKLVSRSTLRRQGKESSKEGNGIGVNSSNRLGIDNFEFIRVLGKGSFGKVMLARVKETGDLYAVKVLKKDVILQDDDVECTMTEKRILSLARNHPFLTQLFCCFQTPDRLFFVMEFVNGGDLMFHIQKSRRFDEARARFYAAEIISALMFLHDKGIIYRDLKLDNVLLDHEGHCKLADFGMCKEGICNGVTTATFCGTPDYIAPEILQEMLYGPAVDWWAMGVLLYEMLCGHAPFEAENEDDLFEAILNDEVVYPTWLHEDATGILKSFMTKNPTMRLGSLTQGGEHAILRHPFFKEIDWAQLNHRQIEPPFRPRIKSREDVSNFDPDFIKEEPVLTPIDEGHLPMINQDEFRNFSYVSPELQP
How it was run: as §1

Rsk1(h) = Rsk1(h) (Homo sapiens, UniProt Q15418)
Rsk1(h), sequence (Q15418 whole entry): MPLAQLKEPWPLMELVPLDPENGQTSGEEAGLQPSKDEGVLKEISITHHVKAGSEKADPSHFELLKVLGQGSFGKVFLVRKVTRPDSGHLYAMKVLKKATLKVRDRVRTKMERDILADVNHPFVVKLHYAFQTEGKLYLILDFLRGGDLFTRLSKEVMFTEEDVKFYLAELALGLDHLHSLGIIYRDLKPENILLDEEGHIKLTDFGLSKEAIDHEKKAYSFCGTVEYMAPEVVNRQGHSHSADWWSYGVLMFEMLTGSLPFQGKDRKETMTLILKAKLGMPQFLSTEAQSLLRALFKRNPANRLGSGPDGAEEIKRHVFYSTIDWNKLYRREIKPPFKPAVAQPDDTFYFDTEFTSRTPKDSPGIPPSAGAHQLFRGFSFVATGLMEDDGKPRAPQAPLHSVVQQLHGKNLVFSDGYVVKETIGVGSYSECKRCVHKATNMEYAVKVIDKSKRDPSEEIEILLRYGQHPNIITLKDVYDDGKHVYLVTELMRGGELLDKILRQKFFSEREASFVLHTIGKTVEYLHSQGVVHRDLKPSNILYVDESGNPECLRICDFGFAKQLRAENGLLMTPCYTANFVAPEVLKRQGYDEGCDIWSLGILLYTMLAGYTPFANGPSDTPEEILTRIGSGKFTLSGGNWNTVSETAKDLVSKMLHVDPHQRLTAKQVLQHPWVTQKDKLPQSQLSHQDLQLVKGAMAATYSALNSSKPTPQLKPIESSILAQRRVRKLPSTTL
How it was run: as §1

SAPK2a(h) = SAPK2a(h) (Homo sapiens, UniProt Q16539)
SAPK2a(h), sequence (Q16539 whole entry): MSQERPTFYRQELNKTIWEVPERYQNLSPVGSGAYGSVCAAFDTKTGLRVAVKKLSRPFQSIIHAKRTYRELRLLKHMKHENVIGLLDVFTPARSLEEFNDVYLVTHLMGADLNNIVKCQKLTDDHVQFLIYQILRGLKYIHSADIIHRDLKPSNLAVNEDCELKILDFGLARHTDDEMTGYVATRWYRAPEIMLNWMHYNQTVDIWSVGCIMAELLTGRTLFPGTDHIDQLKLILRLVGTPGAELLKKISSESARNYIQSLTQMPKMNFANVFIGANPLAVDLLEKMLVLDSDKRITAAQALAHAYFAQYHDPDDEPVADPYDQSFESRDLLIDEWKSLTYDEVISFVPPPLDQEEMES
How it was run: as §1

Row | Activity at Protein Kinase Assays (% of control), Bmx(h) (Bmx(h)) | Activity at Protein Kinase Assays (% of control), Flt3(h) (Flt3(h)) | Activity at Protein Kinase Assays (% of control), NEK2(h) (NEK2(h)) | Activity at Protein Kinase Assays (% of control), PKA(h) (PKA(h)) | Activity at Protein Kinase Assays (% of control), PKCβII(h) (PKCβII(h)) | Activity at Protein Kinase Assays (% of control), PKCη(h) (PKCη(h)) | Activity at Protein Kinase Assays (% of control), Rsk1(h) (Rsk1(h)) | Activity at Protein Kinase Assays (% of control), SAPK2a(h) (SAPK2a(h)) | SMILES
1 | 101 % of control | 86 % of control | 104 % of control | 90 % of control | 64 % of control | 85 % of control | 39 % of control | 108 % of control | CN(C)c1nc2ccc1CCCCn1cc(c3ccccc31)C1=C(C(=O)NC1=O)c1cn(c3ccccc13)CCC2 [Cpd 1, 31-(dimethylamino)-5,15,25,32-tetraazaheptacyclo[28.2.2.1^5,12.1^18,25.0^6,11.0^13,17.0^19,24]hexatriaconta-1(32),6,8,10,12(36),13(17),18(35),19,21,23,30,33-dodecaene-14,16-dione]
2 | 159 % of control | 71 % of control | 102 % of control | 95 % of control | 68 % of control | 109 % of control | 15 % of control | 92 % of control | CN(C)c1cc2cc(n1)CCCn1cc(c3ccccc31)C1=C(C(=O)NC1=O)c1cn(c3ccccc13)CCC2 [Cpd 2, 20-(dimethylamino)-4,14,19,26-tetraazaheptacyclo[24.6.1.1^7,14.1^18,22.0^2,6.0^8,13.0^27,32]pentatriaconta-1(33),2(6),7(35),8,10,12,18(34),19,21,27,29,31-dodecaene-3,5-dione]
3 | 173 % of control | 77 % of control | 105 % of control | 104 % of control | 74 % of control | 102 % of control | 15 % of control | 92 % of control | O=C1NC(=O)C2=C1c1cn(c3ccccc13)CCCc1cc(nc(N3CCCC3)c1)CCCn1cc2c2ccccc21 [Cpd 6, 20-pyrrolidin-1-yl-4,14,19,26-tetraazaheptacyclo[24.6.1.1^7,14.1^18,22.0^2,6.0^8,13.0^27,32]pentatriaconta-1(33),2(6),7(35),8,10,12,18(34),19,21,27,29,31-dodecaene-3,5-dione]
4 | 176 % of control | 85 % of control | 99 % of control | 102 % of control | 77 % of control | 97 % of control | 85 % of control | 93 % of control | O=C1NC(=O)C2=C1c1cn(c3ccccc13)CCCc1ccc(c(N3CCCC3)n1)CCCn1cc2c2ccccc21 [Cpd 7, 31-pyrrolidin-1-yl-5,15,25,30-tetraazaheptacyclo[27.2.2.1^5,12.1^18,25.0^6,11.0^13,17.0^19,24]pentatriaconta-1(31),6,8,10,12(35),13(17),18(34),19,21,23,29,32-dodecaene-14,16-dione]
